*1 amine or outer side, *2 acyl side, *3 side chain or, on linkers, in order; H or OH if unused. Where a SMILES comes first, the peptide text is derived from it. Bridges are numbered along the chain shown (N, C = ends). Roman numbers before positions name the chains, in order. [ ]: non-standard residue; d: D form. Abu(4-yl) = O=C([C@H](CC[*:3])N[*:1])[*:2]; 2Nal = N[C@@H](Cc1ccc2ccccc2c1)C(=O)O; Diglycolyl = O=C(COCC(=O)[*:2])[*:1]; AEF = NCCOc1ccc(C[C@H](N)C(=O)O)cc1; Pen = CC(C)(S)[C@H](N)C(=O)O; Aib = CC(C)(N)C(=O)O
Legend:
Interleukin-23 receptor [1] = molecular target: T1, Interleukin-23 receptor (Homo sapiens, UniProt Q5VWK5); assay: Inhibition of interleukin-23 receptor in human DB cells assessed as reduction in IL-23-stimulated STAT3 phosphorylation incubated for 30 mins by HTRF assay; assay type: cell-based
T1 sequence (Q5VWK5 whole entry): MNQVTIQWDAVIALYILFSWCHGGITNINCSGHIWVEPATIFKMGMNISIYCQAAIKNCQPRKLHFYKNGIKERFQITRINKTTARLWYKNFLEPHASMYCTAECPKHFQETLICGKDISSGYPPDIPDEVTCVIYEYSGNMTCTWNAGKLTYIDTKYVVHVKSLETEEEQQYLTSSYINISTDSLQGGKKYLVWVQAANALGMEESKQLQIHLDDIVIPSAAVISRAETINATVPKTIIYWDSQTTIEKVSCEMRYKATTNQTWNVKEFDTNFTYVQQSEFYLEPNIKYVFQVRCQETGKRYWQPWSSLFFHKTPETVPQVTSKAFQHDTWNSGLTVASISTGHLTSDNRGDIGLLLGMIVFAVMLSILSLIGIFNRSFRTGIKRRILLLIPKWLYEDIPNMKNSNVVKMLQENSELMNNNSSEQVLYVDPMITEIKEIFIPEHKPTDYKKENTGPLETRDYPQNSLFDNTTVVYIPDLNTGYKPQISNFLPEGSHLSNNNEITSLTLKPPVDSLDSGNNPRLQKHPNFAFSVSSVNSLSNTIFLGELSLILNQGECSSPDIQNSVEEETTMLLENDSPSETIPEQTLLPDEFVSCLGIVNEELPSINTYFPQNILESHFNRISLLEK

Interleukin-23 receptor [2] = molecular target: T1, Interleukin-23 receptor; assay: Inhibition of interleukin-23 binding to human interleukin-23 receptor incubated for 2 hrs by competitive binding ELISA

IC50 (Interleukin-23 receptor [1])	IC50 (Interleukin-23 receptor [2])	SMILES
< 10 nM	10 to 25 nM	CC(=O)N[C@H](C(=O)N[C@@H](CO)C(=O)N[C@H](C(=O)N[C@@H](Cc1c[nH]c2ccccc12)C(=O)N[C@@H](CCC(N)=O)C(=O)N[C@H](C(=O)N[C@@H](Cc1ccc(OCCN)cc1)C(=O)N[C@@H](Cc1ccc2ccccc2c1)C(=O)N[C@@](C)(CCCCN)C(=O)N[C@@H](CCC(=O)O)C(=O)N[C@@H](CC(N)=O)C(=O)NCC(N)=O)C(C)(C)S)[C@@H](C)O)C(C)(C)S
< 10 nM	10 to 25 nM	CC(=O)N[C@H](C(=O)NCC(=O)N[C@H](C(=O)N[C@@H](Cc1c[nH]c2ccccc12)C(=O)N[C@@H](CCC(N)=O)C(=O)N[C@H](C(=O)N[C@@H](Cc1ccc(OCCN)cc1)C(=O)N[C@@H](Cc1ccc2ccccc2c1)C(=O)N[C@@](C)(CCCCN)C(=O)N[C@@H](CCC(=O)O)C(=O)N[C@@H](CC(N)=O)C(=O)NCC(N)=O)C(C)(C)S)[C@@H](C)O)C(C)(C)S
10 to 25 nM	25 to 100 nM	CC(=O)N[C@H]1CCSC[C@@H](C(=O)N[C@@H](Cc2ccc(OCCNC(=O)COCC(=O)NCCOc3ccc(C[C@H](NC(=O)[C@@H]4CSCC[C@H](NC(C)=O)C(=O)N[C@@H](CCC(N)=O)C(=O)N[C@@H]([C@@H](C)O)C(=O)N[C@@H](Cc5c[nH]c6ccccc56)C(=O)N[C@@H](CCC(N)=O)C(=O)N4)C(=O)N[C@@H](Cc4ccc5ccccc5c4)C(=O)NC(C)(C)C(=O)N[C@@H](CCC(N)=O)C(=O)N[C@@H](CC(N)=O)C(=O)NCC(N)=O)cc3)cc2)C(=O)N[C@@H](Cc2ccc3ccccc3c2)C(=O)NC(C)(C)C(=O)N[C@@H](CCC(N)=O)C(=O)N[C@@H](CC(N)=O)C(=O)NCC(N)=O)NC(=O)[C@H](CCC(N)=O)NC(=O)[C@H](Cc2c[nH]c3ccccc23)NC(=O)[C@H]([C@@H](C)O)NC(=O)[C@H](CCC(N)=O)NC1=O (I: Ac-[Abu(4-yl)]QTWQC[AEF][2Nal][Aib]QNG-NH2 / II: Ac-[Abu(4-yl)]QTWQC[AEF][2Nal][Aib]QNG-NH2; thioether I:1-I:6, II:1-II:6; linker I:7-II:7 via Diglycolyl)
> 1000 nM	> 10000 nM	CC(=O)N[C@@H](CS)C(=O)N[C@@H](CCC(N)=O)C(=O)N[C@H](C(=O)N[C@@H](Cc1c[nH]c2ccccc12)C(=O)N[C@@H](CCC(N)=O)C(=O)N[C@@H](CS)C(=O)N[C@@H](Cc1ccc(O)cc1)C(=O)N[C@@H](Cc1c[nH]c2ccccc12)C(=O)N[C@@H](CCC(C)C)C(=O)N[C@@H](CCC(=O)O)C(=O)N[C@@H](CC(N)=O)C(=O)NCC(=O)N[C@@H](CCCNC(=N)N)C(N)=O)[C@@H](C)O
10 to 25 nM	25 to 100 nM	CC(=O)N[C@H]1CCSC[C@@H](C(=O)N[C@@H](Cc2ccc(F)c(F)c2)C(=O)N[C@@H](Cc2ccc3ccccc3c2)C(=O)NC(C)(C)C(=O)N[C@@H](CCC(=O)O)C(=O)N[C@@H](CC(N)=O)C(=O)NCC(N)=O)NC(=O)[C@H](CCC(N)=O)NC(=O)[C@H](Cc2c[nH]c3ccccc23)NC(=O)[C@H]([C@@H](C)O)NC(=O)[C@H](CCC(N)=O)NC1=O
< 10 nM	10 to 25 nM	CC(=O)N[C@H](C(=O)N[C@@H](CCC(N)=O)C(=O)N[C@H](C(=O)N[C@@H](Cc1c[nH]c2ccccc12)C(=O)N[C@@H](CCC(N)=O)C(=O)N[C@H](C(=O)N[C@@H](Cc1ccc(OCCN)cc1)C(=O)N[C@@H](Cc1ccc2ccccc2c1)C(=O)N[C@@](C)(CCCCN)C(=O)N[C@@H](CCC(=O)O)C(=O)N[C@@H](CC(N)=O)C(=O)NCC(N)=O)C(C)(C)S)[C@@H](C)O)C(C)(C)S
< 10 nM	–	CC(=O)NCCCC[C@H](NC(=O)C(C)(C)NC(=O)[C@H](Cc1ccc2ccccc2c1)NC(=O)[C@H](Cc1ccc(OCCN)cc1)NC(=O)[C@@H](NC(=O)[C@H](CCC(N)=O)NC(=O)[C@H](Cc1c[nH]c2ccccc12)NC(=O)[C@@H](NC(=O)[C@H](CCC(N)=O)NC(=O)[C@@H](NC(=O)[C@@H](CCCNC(=N)N)NC(C)=O)C(C)(C)S)[C@@H](C)O)C(C)(C)S)C(=O)N[C@@H](CC(N)=O)C(=O)N[C@@H](CC(N)=O)C(N)=O
< 10 nM	–	COc1ccc(C[C@H](NC(=O)[C@@H](NC(=O)[C@H](CCC(N)=O)NC(=O)[C@H](Cc2c[nH]c3ccccc23)NC(=O)[C@@H](NC(=O)[C@H](CCC(N)=O)NC(=O)[C@@H](NC(C)=O)C(C)(C)S)[C@@H](C)O)C(C)(C)S)C(=O)N[C@@H](Cc2ccc3ccccc3c2)C(=O)NC(C)(C)C(=O)N[C@@H](CCCCNC(C)=O)C(=O)N[C@@H](CC(N)=O)C(=O)NCCC(N)=O)cc1
< 10 nM	10 to 25 nM	CC(=O)N[C@H](C(=O)N[C@H](C(=O)N[C@H](C(=O)N[C@@H](Cc1c[nH]c2ccccc12)C(=O)N[C@@H](CCC(N)=O)C(=O)N[C@H](C(=O)N[C@@H](Cc1ccc(OCCN)cc1)C(=O)N[C@@H](Cc1ccc2ccccc2c1)C(=O)N[C@@](C)(CCCCN)C(=O)N[C@@H](CCC(=O)O)C(=O)N[C@@H](CC(N)=O)C(=O)NCC(N)=O)C(C)(C)S)[C@@H](C)O)[C@@H](C)O)C(C)(C)S
25 to 100 nM	–	CC(=O)NCCCC[C@H](NC(=O)[C@](C)(CCCCN)NC(=O)[C@H](Cc1ccc2ccccc2c1)NC(=O)[C@H](Cc1ccc(OCCN)cc1)NC(=O)[C@@H]1CSCC[C@H](NC(C)=O)C(=O)N[C@@H](CCC(N)=O)C(=O)N[C@@H]([C@@H](C)O)C(=O)N[C@@H](Cc2c[nH]c3ccccc23)C(=O)N[C@@H](CCC(N)=O)C(=O)N1)C(=O)N[C@@H](CC(=O)NCCCCN)C(=O)NCC(N)=O

The next lines start with the compound.

SMILES	IC50 (Interleukin-23 receptor [1])	IC50 (Interleukin-23 receptor [2])
CC(=O)N[C@@H](CS)C(=O)N[C@@H](C)C(=O)N[C@@H](CC(=O)O)C(=O)N[C@@H](Cc1c[nH]c2ccccc12)C(=O)N[C@H](C(=O)N[C@@H](CS)C(=O)N[C@@H](Cc1ccc(O)cc1)C(=O)N[C@@H](Cc1c[nH]c2ccccc12)C(=O)N[C@H](Cc1cnc[nH]1)C(=O)N[C@H](C(=O)N[C@@H](Cc1ccccc1)C(=O)NCC(=O)NCCOCC(=O)N[C@H](CCCCN)C(N)=O)[C@@H](C)O)C(C)C	100 to 1000 nM	100 to 1000 nM
CC(=O)N[C@H](C(=O)N[C@@H](CC(N)=O)C(=O)N[C@H](C(=O)N[C@@H](Cc1c[nH]c2ccccc12)C(=O)N[C@@H](CCC(N)=O)C(=O)N[C@H](C(=O)N[C@@H](Cc1ccc(OCCN)cc1)C(=O)N[C@@H](Cc1ccc2ccccc2c1)C(=O)N[C@@](C)(CCCCN)C(=O)N[C@@H](CCC(=O)O)C(=O)N[C@@H](CC(N)=O)C(=O)NCC(N)=O)C(C)(C)S)[C@@H](C)O)C(C)(C)S	< 10 nM	< 10 nM
CC(=O)NCCCC[C@H](NC(=O)C(C)(C)NC(=O)[C@H](Cc1ccc2ccccc2c1)NC(=O)[C@H](Cc1ccc(OCCN)cc1)NC(=O)[C@@H](NC(=O)[C@H](CCC(N)=O)NC(=O)[C@H](Cc1c[nH]c2ccccc12)NC(=O)[C@@H](NC(=O)[C@H](CCC(N)=O)NC(=O)[C@@H](NC(=O)[C@@H](CC(=O)O)NC(C)=O)C(C)(C)S)[C@@H](C)O)C(C)(C)S)C(=O)N[C@@H](CC(N)=O)C(=O)N[C@@H](CC(N)=O)C(N)=O	< 10 nM	–
CC(=O)NCCCC[C@H](NC(=O)[C@](C)(CCCCN)NC(=O)[C@H](Cc1c[nH]c2ccccc12)NC(=O)[C@H](Cc1ccc(OCCN)cc1)NC(=O)[C@@H]1CSCC[C@H](NC(C)=O)C(=O)N[C@@H](CCC(N)=O)C(=O)N[C@@H]([C@@H](C)O)C(=O)N[C@@H](Cc2c[nH]c3ccccc23)C(=O)N[C@@H](CCC(N)=O)C(=O)N1)C(=O)NC1CNC(=O)CNC1=O (stereo partly drawn)	< 10 nM	25 to 100 nM
CC(=O)NCCCC[C@H](NC(=O)C(C)(C)NC(=O)[C@H](Cc1ccc2ccccc2c1)NC(=O)[C@H](Cc1ccc(OCCN)cc1)NC(=O)[C@@H](NC(=O)[C@H](CCC(N)=O)NC(=O)[C@H](Cc1c[nH]c2ccccc12)NC(=O)[C@@H](NC(=O)[C@H](CCC(N)=O)NC(=O)[C@@H](NC(=O)[C@H](Cc1ccc2ccccc2c1)NC(C)=O)C(C)(C)S)[C@@H](C)O)C(C)(C)S)C(=O)N[C@@H](CC(N)=O)C(=O)N[C@@H](CC(N)=O)C(N)=O	< 10 nM	–
CC(=O)NCCCC[C@H](NC(=O)C(C)(C)NC(=O)[C@H](Cc1ccc2ccccc2c1)NC(=O)[C@H](Cc1ccc(OCCN)cc1)NC(=O)[C@@H](NC(=O)[C@H](CCC(N)=O)NC(=O)[C@H](Cc1c[nH]c2ccccc12)NC(=O)[C@@H](NC(=O)[C@H](CCC(N)=O)NC(=O)[C@@H](NC(=O)[C@H](Cc1ccccc1)NC(C)=O)C(C)(C)S)[C@@H](C)O)C(C)(C)S)C(=O)N[C@@H](CC(N)=O)C(=O)N[C@@H](CC(N)=O)C(N)=O	< 10 nM	–
CC(=O)NCCCC[C@H](NC(=O)C(C)(C)NC(=O)[C@H](Cc1ccc2ccccc2c1)NC(=O)[C@H](Cc1ccc(OCCN)cc1)NC(=O)[C@@H](NC(=O)[C@H](CCC(N)=O)NC(=O)[C@H](Cc1c[nH]c2ccccc12)NC(=O)[C@@H](NC(=O)[C@H](CCC(N)=O)NC(=O)[C@@H](NC(=O)[C@H](CC(C)C)NC(C)=O)C(C)(C)S)[C@@H](C)O)C(C)(C)S)C(=O)N[C@@H](CC(N)=O)C(=O)N[C@@H](CC(N)=O)C(N)=O (Ac-L[Pen]QTWQ[Pen][AEF][2Nal][Aib]K(Ac)NN-NH2)	< 10 nM	–
CC(=O)N[C@@H](CS)C(=O)N[C@@H](CN)C(=O)N[C@H](C(=O)N[C@@H](Cc1c[nH]c2ccccc12)C(=O)N[C@@H](CCC(N)=O)C(=O)N[C@@H](CS)C(=O)N[C@@H](Cc1ccc(O)cc1)C(=O)N[C@@H](Cc1c[nH]c2ccccc12)C(=O)N[C@@H](CCCNC(=N)N)C(=O)N[C@H](C(=O)N[C@@H](Cc1ccccc1)C(=O)NCC(=O)NCCOCC(=O)N[C@H](CCCCN)C(N)=O)C(C)C)[C@@H](C)O	100 nM	–

— ChEMBL document CHEMBL4417631, “Oral peptide inhibitors of interleukin-23 receptor and their use to treat inflammatory bowel diseases” (2017)
